pKd: −log10 of the molar value.
Assays:
Type in all cases: nucleic-acid assay
Nucleic Acid [1] = assay: Tested for binding affinity against RNA construct A
Nucleic Acid [2] = assay: Tested for binding affinity against RNA construct B
Nucleic Acid [3] = assay: Tested for binding affinity against RNA construct C; n.b. means no observable binding
Nucleic Acid [4] = assay: Tested for binding affinity against RNA construct D
Nucleic Acid [5] = assay: Tested for binding affinity against RNA construct E
Nucleic Acid [6] = assay: Tested for binding affinity against RNA construct C
Nucleic Acid [7] = assay: Tested for binding affinity against RNA construct A; n.b. means no observable binding
Nucleic Acid [8] = assay: Tested for binding affinity against RNA construct B; n.b. means no observable binding
Nucleic Acid [9] = assay: Tested for binding affinity against RNA construct D; n.b. means no observable binding
Nucleic Acid [10] = assay: Tested for binding affinity against RNA construct E; n.b. means no observable binding

Compound | pKd (Nucleic Acid [1]) | pKd (Nucleic Acid [2]) | Kd (Nucleic Acid [3]) | pKd (Nucleic Acid [4]) | pKd (Nucleic Acid [5]) | pKd (Nucleic Acid [6]) | Kd (Nucleic Acid [7]) | Kd (Nucleic Acid [8]) | Kd (Nucleic Acid [9]) | Kd (Nucleic Acid [10])
NC[C@H]1O[C@H](O[C@H]2[C@H](O)[C@@H](O[C@H]3O[C@H](CO)[C@@H](O)[C@H](N)[C@H]3O)[C@H](N)C[C@@H]2N)[C@H](N)[C@@H](O)[C@@H]1O [BEKANAMYCIN] | 5.53 | 5.54 | No binding | 5.56 | 6.04 |  |  |  |  | 
NC[C@@H]1O[C@H](O[C@H]2[C@@H](O)[C@H](O[C@@H]3[C@@H](O)[C@H](N)C[C@H](N)[C@H]3O[C@H]3O[C@H](CN)[C@@H](O)[C@H](O)[C@H]3N)O[C@@H]2CO)[C@H](N)[C@@H](O)[C@@H]1O [FRAMYCETIN] | 6.39 |  |  | 6.33 | 7.04 | 5.36 |  |  |  | 
NC[C@@H]1O[C@H](O[C@H]2[C@@H](O)[C@H](O[C@@H]3[C@@H](O)[C@H](N)C[C@H](N)[C@H]3O[C@H]3O[C@H](CO)[C@@H](O)[C@H](O)[C@H]3N)O[C@@H]2CO)[C@H](N)[C@@H](O)[C@@H]1O [PAROMOMYCIN] | 5.79 | 5.80 |  | 5.77 | 6.40 | 5.27 |  |  |  | 
CN[C@@H]1[C@H](O[C@H]2[C@H](O[C@H]3[C@H](O)[C@@H](O)[C@H](N=C(N)N)[C@@H](O)[C@@H]3N=C(N)N)O[C@@H](C)[C@]2(O)C=O)O[C@@H](CO)[C@H](O)[C@H]1O [STREPTOMYCIN] |  |  | No binding |  |  |  | No binding | No binding | No binding | No binding
NC[C@H]1O[C@H](O[C@H]2[C@H](O)[C@@H](O[C@H]3O[C@H](CO)[C@@H](O)[C@H](N)[C@H]3O)[C@H](N)C[C@@H]2N)[C@H](N)C[C@@H]1O [TOBRAMYCIN] | 5.68 | 5.69 | No binding |  | 6.17 |  |  |  |  | 

Reference: ChEMBL document CHEMBL1135032, “Binding of aminoglycoside antibiotics with modified A-site 16S rRNA construct containing non-nucleotide linkers” (Bioorg Med Chem Lett, 2002)
